In US10085449B2, “N-[1-((6-chloropyridin-3-yl)methyl)pyridin-2(1H)-ylidene]-2,2,2- trifluoroacetamide for control of agricultural/horticultural pests” (priority 2010, dated 2018):
Like-named read-outs stand apart in the source and are kept apart here.

Columns and labels:
Type in all cases: in vivo
western flower thrips = experiment: whole plant or invertebrate; details: Frankliniella occidentalis, foliar
Procedure, shortened: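 Bean leaf discs sprayed with compound in 50% acetone/water with 0.05% Tween 20, air dried, then infested with first-instar larvae. Held at 25° C under 16 h light/8 h dark; live and dead counted after 3 days to give % mortality, two replicates.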

diamondback moth = experiment: whole plant or invertebrate; details: Plutella xylostella, foliar
Procedure, shortened: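 Cabbage leaf discs sprayed with compound in 50% acetone/water with 0.05% Tween 20, air-dried, then infested with second-instar larvae. Held at 25 °C under 16 h light/8 h dark; mortality from dead/(live+dead) counts after 3 days, two replicates.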

rice leaf bug = experiment: whole plant or invertebrate; details: foliar, 72 h
Procedure, shortened: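 Four-day wheat seedling shoots dipped 30 s in compound solution (50% acetone/water, 0.05% Tween 20), air-dried, then infested with two second-instar larvae per glass cylinder at 25 °C, 16 h light/8 h dark. Mortality (%) counted after 3 days.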

common cutworm = experiment: whole plant or invertebrate; details: for Insecticidal effects (mortality), common cutworm third-instar larvae: foliar application
Procedure, shortened: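 Cabbage leaf discs (5.0 cm) sprayed with compound at a set concentration in 50% acetone/water with 0.05% Tween 20, air dried, then infested with third-instar larvae. Held at 25° C., 16 h light/8 h dark; dead and live larvae counted after 3 days, two replicates, mortality (%) = dead/(live+dead)×100.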

house fly = experiment: House fly control test (local application); parameters: dose or concentration left out as unconfirmed
Method: The inventive compounds prepared to a predetermined concentration in acetone were applied in an amount of 1 μL (per insect) to the backs of adult female flies raised indoors. Following chemical treatment, the flies were transferred to plastic cups, with five flies being placed in each cup, and held in an incubation chamber at 25° C. (16-hour period of light, 8-hour dark period). Twenty-four hours after treatment, the state of knockdown among the flies was observed, and the knockdown rate was calculated from the following formula. The test was carried out as two replications. Knockdown rate (%)=[number of knocked down insects/(number of live insects+number of knocked down insects)]×100

rice water weevil = experiment: Rice water weevil control test (soil drenching treatment); details: 0.1 mg/seedling soil drenching of rice seedlings, adults, 3 days after release
Method: (§1) Rice seedlings grown in pots were subjected to soil drenching treatment with solutions of the inventive compounds at a predetermined concentration prepared to 10% acetone/water. Two days after treatment, five adult rice water weevils were released onto each seedling. The seedlings and insects were then held in an incubation chamber at 25° C. (16-hour period of light, 8-hour dark period). Three days after released, the numbers of live and dead insects were counted, and the mortality was calculated from the following formula. The test was carried out as two replications. Mortality (%)=[number of dead insects/(number of live insects+number of dead insects)]×100

green peach aphid = experiment: Green peach aphid control test (foliar application); details: Myzus persicae, in Brassica oleracea, 72 h
From the text: Leaf discs 2.8 cm in diameter were cut from cabbage plants grown in pots, and four adult aphids were released onto each disc. One day later, the adults were removed, and the number of first-instar larvae that had been deposited on each leaf disc was adjusted to 10. Next, the leaf discs parasitized by these first instar larvae were sprayed with solutions of the inventive compounds at a predetermined concentration prepared to 50% acetone/water (containing 0.05% Tween 20). The treated leaf discs were air dried, following which covers were placed over the Petri dishes and the leaf discs and larvae were held in an incubation chamber at 25° C. (16-hour period of light, 8-hour dark period). Three days after released, the numbers of live and dead insects were counted, and the mortality was calculated from the following formula. This was a two-replication test. Mortality (%)=[number of dead insects/(number of live insects+number of dead insects)]×100

green rice leafhopper = experiment: Green rice leafhopper control test (foliar application); details: Nephotettix cincticeps, 96 h
Method: Rice seedlings grown in pots were subjected to the foliar application of solutions of the inventive compounds at a predetermined concentration prepared to 50% acetone/water (containing 0.05% Tween 20). The treated seedlings were air dried, following which second-instar larvae were released onto the seedlings. The seedlings and larvae were then held in an incubation chamber at 25° C. (16-hour period of light, 8-hour dark period). Four days after released, the numbers of live and dead insects were counted, and the mortality was calculated from the following formula. This was a two-replication test. Mortality (%)=[number of dead insects/(number of live insects+number of dead insects)]×100

[1] = tested on: small brown planthopper having a low susceptibility to insecticides; experiment: Small brown planthopper control test, pests having a low susceptibility to insecticides (soil drenching); details: both lines (susceptible and field-collected)
Method: as §1, with “Three” for “Two”, “ten second-instar small brown planthopper larvae having a low susceptibility to insecticides” for “five adult rice water weevils”
The pests used in this test were insects that had been raised indoors for successive generations over a long period of time (susceptible line), and insects that had been raised indoors for successive generations after being collected in 2006 within Kumamoto Prefecture (field-collected line).

[2] = read-out: Insecticidal effects (mortality), western flower thrips first-instar larvae
[3] = read-out: Insecticidal effects (mortality), diamondback moth second-instar larvae

O=C(N=c1ccccn1Cc1ccc(Cl)nc1)C(F)(F)F [Compound 212, N-[1-((6-chloropyridin-3-yl)methyl)pyridin-2(1H)-ylidene]-2,2,2-trifluoroacetamide]
mortality at 100 ppm (western flower thrips; 72 h): ≥ 80% | mortality at 500 ppm (western flower thrips; 72 h): ≥ 80% | mortality at 20 ppm (western flower thrips; [2]): 65% | mortality at 100 ppm (western flower thrips; [2]): 100% | mortality at 500 ppm (western flower thrips; [2]): 100% | mortality at 20 ppm (diamondback moth; [3]): 100% | mortality at 100 ppm (diamondback moth; [3]): 100% | mortality at 500 ppm (diamondback moth; [3]): 100% | mortality at 100 ppm (diamondback moth; in Brassica oleracea, 72 h): ≥ 80% | mortality at 500 ppm (diamondback moth; in Brassica oleracea, 72 h): ≥ 80% | mortality at 50 ppm (rice leaf bug): ≥ 80% | Insecticidal effects (mortality), common cutworm third-instar larvae (common cutworm; 100 ppm): 30 | Insecticidal effects (mortality), common cutworm third-instar larvae (common cutworm; 500 ppm): 100 | mortality at 500 ppm (common cutworm; foliar, 72 h): ≥ 80% | Insecticidal effects (mortality), adult houseflies (house fly): 100 | Mortality (rice water weevil): at least 80% | mortality at 100 ppm (green peach aphid): ≥ 80% | mortality at 100 ppm (green rice leafhopper): ≥ 80% | Mortality ([1]; 0.005 mg/seedling soil drenching): at least 90% | Mortality ([1]; 0.01 mg/seedling soil drenching): 100%
